Results as given in the supplement of paper PMC10307832.

Assays:
Assay in all cases: relative viability (nuclei count vs DMSO), 5 days (fraction); higher = more cells survive
[1] = compound: CC1=C(C(=NN1)C)CC2=C(C3=C(S2)N(C(=O)N(C3=O)C)CC(C)C)C(=O)N4C[C@@H](CO4)O + Cc1nc(Nc2ncc(C(=O)Nc3c(C)cccc3Cl)s2)cc(N2CCN(CCO)CC2)n1 [Dasatinib] (partner 0.075 µM)
Procedure, shortened: (§1)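 Lung cancer cell lines in 1536-well plates were dosed by pin tool the day after seeding, either with one drug alone or with a fixed anchor-drug dose plus five library-drug doses (not always all listed) in √10 steps. After 5 days, cells were fixed and their nuclei stained in one step (final 0.05% Triton X-100, 1% formaldehyde, 1 ug/ml Hoechst), then counted on 4× images. Relative viability is the nuclei count in treated wells divided by that in vehicle wells. Values are medians of duplicate plates.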

[2] = compound: CC1=C(C(=NN1)C)CC2=C(C3=C(S2)N(C(=O)N(C3=O)C)CC(C)C)C(=O)N4C[C@@H](CO4)O + Nc1nc2[nH]cc(CCc3ccc(C(=O)N[C@@H](CCC(=O)O)C(=O)O)cc3)c2c(=O)[nH]1 [Pemetrexed] (partner 0.2 µM)
Procedure, shortened: as §1

[3] = compound: CC1=C(C(=NN1)C)CC2=C(C3=C(S2)N(C(=O)N(C3=O)C)CC(C)C)C(=O)N4C[C@@H](CO4)O + C[C@]1(O)C[C@@H](c2nc(-c3ccc4ccc(-c5ccccc5)nc4c3)c3c(N)nccn32)C1 [Linsitinib] (partner 1 µM)
Procedure, shortened: as §1

IDH-C35 + Lapatinib = compound: Cc1ccccc1C(C(=O)NC1CCCCC1)N(C(=O)Cn1ccnc1C)c1cccc(F)c1 [IDH-C35] + CS(=O)(=O)CCNCc1ccc(-c2ccc3ncnc(Nc4ccc(OCc5cccc(F)c5)c(Cl)c4)c3c2)o1 [Lapatinib] (partner 2 µM)
Procedure, shortened: as §1

Cell Line | relative viability ([1]; first compound 0.0025 µM) | relative viability ([1]; first compound 0.007906 µM) | relative viability ([1]; first compound 0.025 µM) | relative viability ([1]; first compound 0.07906 µM) | relative viability ([1]; first compound 0.25 µM) | relative viability ([2]; first compound 0.0025 µM) | relative viability ([2]; first compound 0.007906 µM) | relative viability ([2]; first compound 0.025 µM) | relative viability ([2]; first compound 0.07906 µM) | relative viability ([2]; first compound 0.25 µM) | relative viability ([3]; first compound 0.0025 µM) | relative viability ([3]; first compound 0.007906 µM) | relative viability ([3]; first compound 0.025 µM) | relative viability ([3]; first compound 0.07906 µM) | relative viability ([3]; first compound 0.25 µM) | relative viability (IDH-C35 + Lapatinib; first compound 0.08 µM) | relative viability (IDH-C35 + Lapatinib; first compound 0.253 µM) | relative viability (IDH-C35 + Lapatinib; first compound 0.8 µM) | relative viability (IDH-C35 + Lapatinib; first compound 2.53 µM) | relative viability (IDH-C35 + Lapatinib; first compound 8 µM)
NCI-H2342 | 0.297 | 0.348 | 0.283 | 0.322 | 0.352 | 0.748 | 0.859 | 0.719 | 0.72 | 0.65 | – | – | – | – | – | – | – | – | – | –
SK-MES-1 | 0.389 | 0.367 | 0.371 | 0.337 | 0.314 | 1.08 | 0.988 | 0.857 | 0.967 | 0.988 | 1.05 | 1.03 | 1.04 | 1.15 | 1.14 | 0.435 | 0.49 | 0.446 | 0.481 | 0.413
HCC-366 | 0.601 | 0.813 | 0.836 | 0.635 | 0.789 | 0.178 | 0.191 | 0.133 | 0.172 | 0.181 | 0.593 | 0.771 | 0.59 | 0.62 | 0.712 | 1.12 | 1.03 | 1.04 | 1.08 | 1.12
201T | 0.579 | 0.624 | 0.6 | 0.59 | 0.551 | 0.311 | 0.342 | 0.322 | 0.309 | 0.32 | 1.06 | 0.988 | 1.03 | 1.1 | 1.06 | 1.05 | 1.04 | 1.02 | 0.973 | 1.01
HCC-827 | 0.288 | 0.317 | 0.32 | 0.203 | 0.24 | 0.245 | 0.27 | 0.272 | 0.288 | 0.237 | 1.01 | 1.01 | 0.96 | 0.949 | 0.963 | 0.183 | 0.211 | 0.173 | 0.218 | 0.228
NCI-H647 | 0.408 | 0.241 | 0.194 | 0.112 | 0.15 | 0.194 | 0.177 | 0.173 | 0.199 | 0.195 | 1.33 | 1.37 | 1.33 | 1.24 | 1.44 | 1.01 | 1.08 | 0.999 | 1.09 | 0.86
NCI-H2023 | 0.671 | 0.789 | 0.601 | 0.55 | 0.625 | 0.249 | 0.258 | 0.224 | 0.233 | 0.225 | 0.648 | 0.786 | 0.696 | 0.777 | 0.683 | 0.938 | 0.921 | 0.83 | 0.263 | 0.808
NCI-H520 | 0.231 | 0.194 | 0.161 | 0.154 | 0.179 | 0.731 | 0.711 | 0.468 | 0.526 | 0.504 | 0.87 | 0.902 | 0.528 | 0.409 | 0.552 | 0.895 | 0.979 | 0.765 | 0.884 | 0.914
RERF-LC-KJ | 0.874 | 0.946 | 0.751 | 0.855 | 0.804 | 0.46 | 0.468 | 0.463 | 0.511 | 0.503 | 0.973 | 0.931 | 0.925 | 0.899 | 0.95 | 0.939 | 0.856 | 0.91 | 0.802 | 0.773
A-427 | 0.746 | 0.84 | 0.727 | 0.733 | 0.764 | 1 | 1.07 | 0.935 | 0.906 | 0.983 | 1.09 | 1.22 | 1.08 | 1.08 | 1.14 | 1.03 | 0.978 | 0.942 | 1.02 | 1.03
NCI-H441 | 0.65 | 0.59 | 0.679 | 0.411 | 0.583 | 0.253 | 0.299 | 0.263 | 0.244 | 0.263 | 0.59 | 0.491 | 0.493 | 0.53 | 0.615 | – | – | – | – | –
NCI-H1703 | – | – | – | – | – | – | – | – | – | – | 0.691 | 0.253 | 0.638 | 0.448 | 0.804 | 1.06 | 1.06 | 0.866 | 0.831 | 1.1
NCI-H1792 | 0.836 | 0.947 | 0.813 | 0.569 | 0.687 | 0.932 | 0.6 | 0.768 | 0.644 | 0.719 | 0.722 | 0.541 | 0.487 | 0.402 | 0.344 | 0.806 | 0.893 | 0.87 | 0.98 | 0.973
Calu-6 | – | – | – | – | – | – | – | – | – | – | 0.974 | 0.933 | 0.877 | 0.907 | 0.952 | 1.04 | 1.04 | 1.03 | 1.06 | 1.01
SK-LU-1 | 0.194 | 0.195 | 0.192 | 0.169 | 0.182 | 0.96 | 0.719 | 0.736 | 0.745 | 0.846 | 0.86 | 0.712 | 0.711 | 0.774 | 0.731 | 0.918 | 0.856 | 0.871 | 0.976 | 0.82
PC-3 [JPC-3] | 1.06 | 0.939 | 0.94 | 0.908 | 0.975 | 1.11 | 1.03 | 1.01 | 1.27 | 0.834 | 0.966 | 0.945 | 0.974 | 0.958 | 1.01 | 0.431 | 0.486 | 0.444 | 0.44 | 0.492
EMC-BAC-2 | 0.341 | 0.364 | 0.326 | 0.336 | 0.34 | 0.46 | 0.468 | 0.415 | 0.44 | 0.454 | 0.816 | 0.892 | 0.821 | 0.826 | 0.881 | 0.916 | 0.86 | 0.868 | 0.895 | 0.955
